Laboratory results from US20100298141A1, “SUBSTITUTED PYRIDINE N-OXIDE HERBICIDES” (E. I. DU PONT DE NEMOURS AND COMPANY, priority 2007, published 2010).

Legend:
[1] = tested on: velvetleaf; test: Test C pre-/postemergence test; format: in vivo, Abutilon theophrasti
Outline: (§1)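 Compounds in a non-phytotoxic solvent with surfactant applied preemergence to seeded pots and, at the same time, postemergence to plants 2–18 cm tall (1- to 4-leaf stage). Paddy tests: pots flooded to 3 cm, compound applied into the water, depth held throughout.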

[2] = tested on: cocklebur; test: Test C pre-/postemergence test; format: in vivo, Xanthium strumarium; settings: for Plant response rating (0 to 100), Cocklebur / Plant response rating, Cocklebur: Postemergence; for Plant response rating (0 to 100), Cocklebur: 31 g ai/ha; for Plant response rating, Cocklebur: scale 0 to 100, 0 no effect, 100 complete control
Outline: as §1

[3] = tested on: woolly cupgrass; test: Test C pre-/postemergence test; format: in vivo, Eriochloa villosa
Outline: as §1

[4] = tested on: downy brome; test: Test C pre-/postemergence test; format: in vivo, Bromus tectorum
Outline: as §1

[5] = tested on: corn; test: Test C pre-/postemergence test; format: in vivo, Zea mays
Outline: as §1

[6] = tested on: green foxtail; test: Test C pre-/postemergence test; format: in vivo, Setaria viridis
Outline: as §1

[7] = tested on: morningglory; test: Test C pre-/postemergence test; format: in vivo, Ipomoea coccinea
Outline: as §1

[8] = tested on: giant foxtail; test: Test C pre-/postemergence test; format: in vivo, Setaria faberii; settings: for Foxtail, Giant plant response rating: preemergence, scale 0 (no effect) to 100 (complete control)
Outline: as §1

[9] = tested on: duck salad; test: Test C flooded paddy test; format: in vivo, Heteranthera limosa; settings: Flood
Outline: (§2)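 Pots were flooded to 3 cm above the soil surface at treatment, compound applied directly to the paddy water, and that depth held throughout. Plants were kept in a greenhouse for 13 to 15 days, then visually rated against untreated controls.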

[10] = tested on: barnyardgrass; test: Test C flooded paddy test; format: in vivo, Echinochloa crus-galli; settings: Flood
Outline: as §2

[11] = tested on: blackgrass; test: Test C pre-/postemergence test; format: in vivo, Alopecurus myosuroides
Outline: as §1

[12] = tested on: soybean; test: Test C pre-/postemergence test; format: in vivo, Glycine max
Outline: as §1

[13] = tested on: velvetleaf; test: Test A pre-/postemergence greenhouse test; format: in vivo, Abutilon theophrasti; settings: for Plant response rating, Velvetleaf: 0 to 100 scale where 0 is no effect and 100 is complete control; for Velvetleaf plant response rating: 0 to 100 scale
Outline: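 Herbicidal effect is a visual injury score given about ten days post-treatment by comparison with untreated controls. Preemergence plots received a directed spray onto sown loam–sand soil; postemergence plants, at the one- to two-leaf stage and 2–10 cm tall, were sprayed at the same time.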

[14] = tested on: wild oat; test: Test C pre-/postemergence test; format: in vivo, Avena fatua
Outline: as §1

[15] = tested on: johnsongrass; test: Test C pre-/postemergence test; format: in vivo, Sorghum halepense
Outline: as §1

[16] = tested on: Italian ryegrass; test: Test C pre-/postemergence test; format: in vivo, Lolium multiflorum
Outline: as §1

[17] = 62 g ai/ha, Preemergence, scale 0 to 100
[18] = 125 g ai/ha, preemergence, scale 0 (no effect) to 100 (complete control)
[19] = Postemergence, 125 g ai/ha, scale 0 to 100, 0 no effect, 100 complete control
[20] = Postemergence, 250 g ai/ha, scale 0 to 100, 0 no effect, 100 complete control
[21] = Preemergence, 31 g ai/ha, scale 0 to 100 (0 no effect, 100 complete control)
[22] = preemergence, 250 g ai/ha, scale 0 (no effect) to 100 (complete control)
[23] = Postemergence, 62 g ai/ha, scale 0 to 100, 0 no effect, 100 complete control
[24] = 62 g ai/ha, scale 0 to 100 (0 no effect, 100 complete control)
[25] = 250 g ai/ha, scale 0 to 100, 0 no effect, 100 complete control, 13 to 15 days
[26] = Postemergence, 500 g ai/ha, 0 is no effect, 100 is complete control
[27] = Preemergence, 125 g ai/ha, 0 no effect, 100 complete control
[28] = 31 g ai/ha, scale 0 to 100 (0 no effect, 100 complete control)
[29] = 62 g ai/ha, scale 0 to 100, 0 no effect, 100 complete control, 13 to 15 days
[30] = 125 g ai/ha, scale 0 to 100, 0 no effect, 100 complete control, 13 to 15 days

CCn1nc(C(F)(F)F)c(C[S+]([O-])c2cccc[n+]2[O-])c1OCC(F)(F)F (racemic) [Compound 65]
75: Plant response rating, Bromegrass, Downy [4, 20] | Morningglory plant response rating [7, 22]
50: Plant response rating, Corn [5, 19] | Plant response rating, Foxtail, Green [6, 23] | Plant response rating (0 to 100), Soybean ([12]; Postemergence, 62 g ai/ha) | Plant response rating, Ryegrass, Italian [16, 21]
40: Plant response rating, Velvetleaf [1, 20] | Cupgrass, Woolly plant response rating [3, 17] | Plant response rating, Cupgrass, Woolly [3, 20] | Plant response rating, Cupgrass, Woolly [3, 21] | Plant response rating, Foxtail, Giant [8, 19] | Plant response rating, Oat, Wild [14, 23]
100: Velvetleaf plant response rating [1, 18] | Velvetleaf plant response rating [1, 22] | Cupgrass, Woolly plant response rating [3, 18] | Cupgrass, Woolly plant response rating [3, 22] | Bromegrass, Downy plant response rating [4, 17] | Bromegrass, Downy plant response rating [4, 18] | Bromegrass, Downy plant response rating [4, 22] | Corn plant response rating [5, 17] | Corn plant response rating [5, 18] | Corn plant response rating [5, 22] | Foxtail, Green plant response rating [6, 17] | Foxtail, Green plant response rating [6, 18] | Foxtail, Green plant response rating [6, 22] | Foxtail, Giant plant response rating ([8]; 125 g ai/ha) | Foxtail, Giant plant response rating ([8]; 250 g ai/ha) | Plant response rating, Ducksalad [9, 25] | Blackgrass plant response rating [11, 17] | Blackgrass plant response rating [11, 18] | Plant response rating, Blackgrass [11, 21] | Blackgrass plant response rating [11, 22] | Velvetleaf plant response rating [13, 27] | Plant response rating, Velvetleaf ([13]; Preemergence, 500 g ai/ha) | Oat, Wild plant response rating [14, 22] | Johnsongrass plant response rating [15, 17] | Johnsongrass plant response rating [15, 18] | Johnsongrass plant response rating [15, 22] | Ryegrass, Italian plant response rating [16, 17] | Ryegrass, Italian plant response rating [16, 18] | Ryegrass, Italian plant response rating [16, 22]
60: Velvetleaf plant response rating [1, 17] | Plant response rating, Soybean [12, 19]
0: Plant response rating (0 to 100), Velvetleaf ([1]; Postemergence, 31 g ai/ha) | Plant response rating (0 to 100), Velvetleaf ([1]; Postemergence, 62 g ai/ha) | Cocklebur plant response rating [2, 17] | Plant response rating (0 to 100), Cocklebur [2] | Plant response rating, Cocklebur ([2]; 62 g ai/ha) | Plant response rating, Cocklebur ([2]; 125 g ai/ha) | Plant response rating, Cocklebur ([2]; 250 g ai/ha) | Plant response rating (0 to 100), Cupgrass, Woolly ([3]; Postemergence, 31 g ai/ha) | Plant response rating, Cupgrass, Woolly [3, 23] | Plant response rating, Cupgrass, Woolly [3, 19] | Plant response rating (0 to 100), Bromegrass, Downy ([4]; Postemergence, 31 g ai/ha) | Plant response rating (0 to 100), Corn ([5]; Postemergence, 31 g ai/ha) | Plant response rating, Corn [5, 23] | Morningglory plant response rating [7, 17] | Plant response rating (0 to 100), Morningglory ([7]; Postemergence, 31 g ai/ha) | Plant response rating, Morningglory [7, 23] | Plant response rating, Morningglory [7, 19] | Plant response rating, Morningglory [7, 20] | Plant response rating, Morningglory [7, 21] | Plant response rating (0 to 100), Foxtail, Giant ([8]; Postemergence, 31 g ai/ha) | Plant response rating, Foxtail, Giant [8, 23] | Plant response rating (0 to 100), Blackgrass ([11]; Postemergence, 31 g ai/ha) | Plant response rating (0 to 100), Oat, Wild ([14]; Postemergence, 31 g ai/ha) | Plant response rating (0 to 100), Johnsongrass ([15]; Postemergence, 31 g ai/ha) | Plant response rating, Johnsongrass [15, 23] | Plant response rating, Johnsongrass [15, 19] | Plant response rating, Johnsongrass [15, 20] | Plant response rating (0 to 100), Ryegrass, Italian ([16]; Postemergence, 31 g ai/ha) | Plant response rating (0 to 100), Ryegrass, Italian ([16]; Postemergence, 62 g ai/ha)
10: Plant response rating, Bromegrass, Downy [4, 23]
55: Plant response rating, Velvetleaf [1, 21] | Plant response rating, Barnyardgrass [10, 24]
85: Plant response rating, Barnyardgrass [10, 25] | Plant response rating, Oat, Wild [14, 20] | Plant response rating, Oat, Wild [14, 21]
95: Plant response rating, Ryegrass, Italian [16, 20]
70: Plant response rating, Corn [5, 21]
80: Plant response rating, Foxtail, Green [6, 19] | Plant response rating, Foxtail, Giant [8, 20] | Plant response rating, Velvetleaf ([13]; Postemergence, 125 g ai/ha) | Plant response rating, Oat, Wild [14, 19]
20: Plant response rating (0 to 100), Soybean ([12]; Postemergence, 31 g ai/ha)
5: Plant response rating (0 to 100), Foxtail, Green ([6]; Postemergence, 31 g ai/ha) | Plant response rating, Soybean [12, 21]
65: Plant response rating, Bromegrass, Downy [4, 21]
98: Plant response rating, Foxtail, Giant [8, 21] | Oat, Wild plant response rating [14, 17] | Oat, Wild plant response rating [14, 18] | Plant response rating, Johnsongrass [15, 21]
90: Cocklebur plant response rating [2, 22] | Plant response rating, Foxtail, Green [6, 20] | Plant response rating, Foxtail, Green [6, 21] | Plant response rating, Soybean [12, 20] | Velvetleaf plant response rating [13, 26] | Plant response rating, Ryegrass, Italian [16, 19]
30: Plant response rating, Velvetleaf [1, 19] | Plant response rating, Bromegrass, Downy [4, 19] | Plant response rating, Ducksalad [9, 24] | Plant response rating, Blackgrass [11, 23] | Plant response rating, Blackgrass [11, 20]

CC(c1c(C(F)(F)F)nn(C)c1Cl)S(=O)(=O)c1ccc(Cl)c[n+]1[O-] (racemic) [Compound 40]
80: Plant response rating, Ducksalad [9, 30]
90: Plant response rating, Ducksalad [9, 25]
20: Plant response rating, Ducksalad [9, 28] | Plant response rating, Johnsongrass [15, 23] | Plant response rating, Johnsongrass [15, 19]
0: Plant response rating (0 to 100), Velvetleaf ([1]; Postemergence, 31 g ai/ha) | Plant response rating (0 to 100), Velvetleaf ([1]; Postemergence, 62 g ai/ha) | Plant response rating, Velvetleaf [1, 19] | Plant response rating, Velvetleaf [1, 20] | Plant response rating (0 to 100), Cocklebur [2] | Plant response rating, Cocklebur ([2]; 62 g ai/ha) | Plant response rating, Cocklebur ([2]; 125 g ai/ha) | Plant response rating, Cocklebur ([2]; 250 g ai/ha) | Plant response rating (0 to 100), Cupgrass, Woolly ([3]; Postemergence, 31 g ai/ha) | Plant response rating, Cupgrass, Woolly [3, 23] | Plant response rating, Cupgrass, Woolly [3, 19] | Plant response rating, Cupgrass, Woolly [3, 20] | Plant response rating (0 to 100), Bromegrass, Downy ([4]; Postemergence, 31 g ai/ha) | Plant response rating, Bromegrass, Downy [4, 23] | Plant response rating, Bromegrass, Downy [4, 19] | Plant response rating, Bromegrass, Downy [4, 20] | Plant response rating (0 to 100), Corn ([5]; Postemergence, 31 g ai/ha) | Plant response rating, Corn [5, 23] | Plant response rating, Corn [5, 19] | Plant response rating, Corn [5, 20] | Plant response rating (0 to 100), Foxtail, Green ([6]; Postemergence, 31 g ai/ha) | Plant response rating, Foxtail, Green [6, 23] | Plant response rating, Foxtail, Green [6, 19] | Plant response rating (0 to 100), Morningglory ([7]; Postemergence, 31 g ai/ha) | Plant response rating, Morningglory [7, 23] | Plant response rating, Morningglory [7, 19] | Plant response rating, Morningglory [7, 20] | Plant response rating (0 to 100), Foxtail, Giant ([8]; Postemergence, 31 g ai/ha) | Plant response rating, Foxtail, Giant [8, 23] | Plant response rating, Foxtail, Giant [8, 19] | Plant response rating, Foxtail, Giant [8, 20] | Plant response rating, Barnyardgrass [10, 28] | Plant response rating (0 to 100), Blackgrass ([11]; Postemergence, 31 g ai/ha) | Plant response rating, Blackgrass [11, 23] | Plant response rating, Blackgrass [11, 19] | Plant response rating, Blackgrass [11, 20] | Plant response rating (0 to 100), Soybean ([12]; Postemergence, 31 g ai/ha) | Plant response rating (0 to 100), Soybean ([12]; Postemergence, 62 g ai/ha) | Plant response rating, Soybean [12, 19] | Plant response rating, Soybean [12, 20] | Velvetleaf plant response rating [13, 27] | Plant response rating (0 to 100), Oat, Wild ([14]; Postemergence, 31 g ai/ha) | Plant response rating, Oat, Wild [14, 23] | Plant response rating, Oat, Wild [14, 19] | Plant response rating (0 to 100), Johnsongrass ([15]; Postemergence, 31 g ai/ha) | Plant response rating (0 to 100), Ryegrass, Italian ([16]; Postemergence, 31 g ai/ha) | Plant response rating (0 to 100), Ryegrass, Italian ([16]; Postemergence, 62 g ai/ha)
65: Plant response rating, Barnyardgrass [10, 25]
45: Plant response rating, Ducksalad [9, 29] | Plant response rating, Ryegrass, Italian [16, 20]
40: Plant response rating, Ryegrass, Italian [16, 19]
60: Plant response rating, Barnyardgrass [10, 30] | Velvetleaf plant response rating [13, 26] | Plant response rating, Johnsongrass [15, 20]
15: Plant response rating, Barnyardgrass [10, 29]
5: Plant response rating, Foxtail, Green [6, 20] | Plant response rating, Oat, Wild [14, 20]
50: Velvetleaf plant response rating ([13]; Postemergence, 125 g ai/ha, 0 is no effect, 100 is complete control) | Plant response rating, Velvetleaf ([13]; Preemergence, 500 g ai/ha)
